ChEMBL document CHEMBL4118246, “Discovery and evaluation of 3,5-disubstituted indole derivatives as Pim kinase inhibitors” (Bioorg Med Chem Lett, 2018)

Experiments:
[1] = molecular target: Serine/threonine-protein kinase pim-3 (Homo sapiens, UniProt Q86V86); assay: Inhibition of PIM3 (unknown origin)
[2] = molecular target: Serine/threonine-protein kinase pim-1 (Homo sapiens, UniProt P11309)
Description: Inhibition of PIM1 (unknown origin)

[3] = molecular target: Serine/threonine-protein kinase pim-2 (Homo sapiens, UniProt Q9P1W9); assay: Inhibition of PIM2 (unknown origin)
Sequence of Serine/threonine-protein kinase pim-2 (Q9P1W9 whole entry): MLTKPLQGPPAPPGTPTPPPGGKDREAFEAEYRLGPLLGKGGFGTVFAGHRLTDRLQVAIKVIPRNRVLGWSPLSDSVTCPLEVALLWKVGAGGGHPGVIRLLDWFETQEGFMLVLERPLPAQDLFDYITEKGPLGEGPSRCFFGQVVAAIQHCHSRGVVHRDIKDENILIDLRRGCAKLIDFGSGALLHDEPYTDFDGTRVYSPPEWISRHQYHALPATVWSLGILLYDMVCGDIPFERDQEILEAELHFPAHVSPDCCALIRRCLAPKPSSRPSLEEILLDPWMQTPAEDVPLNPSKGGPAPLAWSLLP

MV4-11 = assay: Growth inhibition of human MV4-11 cells; type: functional, cell-based
HepG2 [4] = assay: Cell cycle arrest in human HepG2 cells assessed as accumulation at sub-G1 phase at 10 uM by FACS analysis relative to control; type: functional
HepG2 [5] = assay: Cell cycle arrest in human HepG2 cells assessed as accumulation at G2/M phase at 10 uM by FACS analysis relative to control; type: functional
HepG2 [6] = assay: Cell cycle arrest in human HepG2 cells assessed as accumulation at G2/M phase at 1 uM by FACS analysis relative to control; type: functional
HepG2 [7] = assay: Cell cycle arrest in human HepG2 cells assessed as accumulation at sub-G1 phase at 1 uM by FACS analysis relative to control; type: functional
HepG2 [8] = assay: Cell cycle arrest in human HepG2 cells assessed as accumulation at S phase at 10 uM by FACS analysis relative to control; type: functional
HepG2 [9] = assay: Cell cycle arrest in human HepG2 cells assessed as accumulation at G0/G1 phase at 1 uM by FACS analysis relative to control; type: functional
HepG2 [10] = assay: Cell cycle arrest in human HepG2 cells assessed as accumulation at S phase at 1 uM by FACS analysis relative to control; type: functional
HepG2 [11] = assay: Cell cycle arrest in human HepG2 cells assessed as accumulation at G0/G1 phase at 10 uM by FACS analysis relative to control; type: functional

Sequence of Serine/threonine-protein kinase pim-1 (P11309 whole entry): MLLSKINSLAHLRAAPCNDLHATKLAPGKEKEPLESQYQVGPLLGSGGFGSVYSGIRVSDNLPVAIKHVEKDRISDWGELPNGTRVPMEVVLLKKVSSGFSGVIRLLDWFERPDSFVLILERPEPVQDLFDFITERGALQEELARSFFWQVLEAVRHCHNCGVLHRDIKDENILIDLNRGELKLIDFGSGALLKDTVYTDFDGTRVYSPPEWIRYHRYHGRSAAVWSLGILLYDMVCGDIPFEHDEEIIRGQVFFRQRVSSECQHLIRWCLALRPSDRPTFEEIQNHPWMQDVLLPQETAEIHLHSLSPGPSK

Row | IC50 [1] | IC50 [2] | IC50 [3] | Structure (SMILES) | further results
1 | 7 nM | 3 nM |  | CN(C)CCNc1cncc(-c2ccc3[nH]cc(-c4ccnc(N)n4)c3c2)n1 | 
2 | 7 nM | 5 nM | 230 nM | NCCNc1cncc(-c2ccc3[nH]cc(-c4ccccc4F)c3c2)n1 | 
3 | 7 nM | 3 nM | 220 nM | CC(=O)c1ccc(F)c(-c2c[nH]c3ccc(-c4cncc(NCCN(C)C)n4)cc23)c1 | IC50 (MV4-11): 6300 nM
4 | 40 nM | 19 nM | 820 nM | CN(C)CCNc1cncc(-c2ccc3[nH]cc(-c4cccc(N)c4)c3c2)n1 | 
5 | 247 nM | 67 nM | 5800 nM | CN(C)CCNc1cncc(-c2ccc3[nH]cc(-c4ccc(C(F)(F)F)cc4)c3c2)n1 | 
6 | 589 nM | 256 nM | 7950 nM | CN(C)CCNc1cncc(-c2ccc3[nH]cc(-c4ccc(C(F)(F)F)c(F)c4)c3c2)n1 | 
7 | 3050 nM | 885 nM | > 10000 nM | OCCc1cncc(-c2ccc3[nH]cc(-c4ccccc4F)c3c2)n1 | 
8 | 16 nM | 12 nM | 537 nM | Fc1ccccc1-c1c[nH]c2ccc(-c3cncc(N4CCCNCC4)n3)cc12 | 
9 | 155 nM | 33 nM | 2540 nM | CN(C)CCNc1cncc(-c2ccc3[nH]cc(-c4ccc(C#N)cc4)c3c2)n1 | 
10 | 10 nM | 5 nM | 259 nM | CN(C)CCNc1cncc(-c2ccc3[nH]cc(-c4ccc(N)c(C#N)c4)c3c2)n1 | Activity (HepG2 [4]): 2.6%; Activity (HepG2 [5]): 15.8%; Activity (HepG2 [6]): 16.5%; Activity (HepG2 [7]): 3.4%; Activity (HepG2 [8]): 23.1%; Activity (HepG2 [9]): 52.3%; Activity (HepG2 [10]): 21.7%; IC50 (MV4-11): 800 nM; Activity (HepG2 [11]): 53%
11 | 183 nM | 144 nM | 4320 nM | CN(C)CCNc1cncc(-c2ccc3[nH]cc(-c4ccc(F)c(C(F)(F)F)c4)c3c2)n1 | 
12 | 905 nM | 307 nM | > 10000 nM | CN(C)CCCOc1cncc(-c2ccc3[nH]cc(-c4ccc(C(F)(F)F)cc4)c3c2)n1 | 
13 | 69 nM | 35 nM | 2260 nM | CN(C)CCNc1cncc(-c2ccc3[nH]cc(-c4cccc(C(F)(F)F)c4)c3c2)n1 | 
14 | 10 nM | 7 nM | 370 nM | CN(C)CCNc1cncc(-c2ccc3[nH]cc(-c4ccccc4F)c3c2)n1 | 
15 |  | > 10000 nM |  | Brc1ccc2[nH]cc(-c3ccccc3)c2c1 | 
16 | 401 nM | 313 nM | > 10000 nM | CN(C)CCN(C)c1cncc(-c2ccc3[nH]cc(-c4ccc(C(F)(F)F)cc4)c3c2)n1 | 
17 | 26 nM | 9 nM | 700 nM | CN(C)CCNc1cncc(-c2ccc3[nH]cc(-c4ccc(S(N)(=O)=O)cc4)c3c2)n1 | Activity (HepG2 [4]): 2.4%; Activity (HepG2 [5]): 14.6%; Activity (HepG2 [6]): 15.3%; Activity (HepG2 [7]): 2.4%; Activity (HepG2 [8]): 19.8%; Activity (HepG2 [9]): 55.5%; Activity (HepG2 [10]): 21.3%; IC50 (MV4-11): 6800 nM; Activity (HepG2 [11]): 58%
18 | 273 nM | 257 nM | > 10000 nM | O=C1NCCN1c1cncc(-c2ccc3[nH]cc(-c4ccccc4F)c3c2)n1 | 
19 | 22 nM | 9 nM | 645 nM | CN(C)CCNc1cncc(-c2ccc3[nH]cc(-c4cccc(F)c4F)c3c2)n1 | Activity (HepG2 [4]): 74.2%; Activity (HepG2 [5]): 0%; Activity (HepG2 [6]): 16.2%; Activity (HepG2 [7]): 2.8%; Activity (HepG2 [8]): 3.2%; Activity (HepG2 [9]): 56%; Activity (HepG2 [10]): 19.2%; IC50 (MV4-11): 2600 nM; Activity (HepG2 [11]): 22.6%
20 | 18 nM | 9 nM | 841 nM | CN(C)CCNc1cncc(-c2ccc3[nH]cc(-c4cc(C#N)ccc4F)c3c2)n1 | Activity (HepG2 [4]): 5.7%; Activity (HepG2 [5]): 19%; Activity (HepG2 [6]): 17%; Activity (HepG2 [7]): 2.4%; Activity (HepG2 [8]): 28.3%; Activity (HepG2 [9]): 53.5%; Activity (HepG2 [10]): 20.6%; IC50 (MV4-11): 2900 nM; Activity (HepG2 [11]): 37.6%
21 | 19 nM | 7 nM | 560 nM | COc1cccc(-c2c[nH]c3ccc(-c4cncc(NCCN(C)C)n4)cc23)c1 | 

Row | IC50 [1] | IC50 [2] | IC50 [3] | Structure (SMILES) | further results
22 | 368 nM | 195 nM | > 10000 nM | CN(C)CCCNc1cncc(-c2ccc3[nH]cc(-c4ccc(C(F)(F)F)cc4)c3c2)n1 | 
23 | 60 nM | 21 nM | 770 nM | CN(C)CCNc1cncc(-c2ccc3[nH]cc(-c4cccc(C#N)c4)c3c2)n1 | 
24 | > 10000 nM | > 10000 nM | > 10000 nM | CCOc1cncc(-c2ccc3[nH]cc(-c4ccccc4)c3c2)n1 | 
25 | 128 nM | 134 nM | 2780 nM | CN(C)CCNc1cncc(-c2ccc3[nH]cc(-c4cccc(OC(F)(F)F)c4)c3c2)n1 | 
26 | 35 nM | 30 nM | 650 nM | CN(C)CCNc1cncc(-c2ccc3[nH]cc(-c4cccc(F)c4)c3c2)n1 | 
27 | 241 nM | 260 nM | 2120 nM | FC(F)(F)c1ccc(-c2c[nH]c3ccc(-c4cncc(N5CCNCC5)n4)cc23)cc1 | 
28 | 9 nM | 3 nM | 267 nM | CN(C)CCNc1cncc(-c2ccc3[nH]cc(-c4ccc(N)cc4F)c3c2)n1 | IC50 (MV4-11): 1700 nM
29 | 50 nM | 21 nM | 2160 nM | CN(C)CCNc1cncc(-c2ccc3[nH]cc(-c4ccc(S(C)(=O)=O)cc4)c3c2)n1 | Activity (HepG2 [4]): 2.7%; Activity (HepG2 [5]): 17.9%; Activity (HepG2 [6]): 19.3%; Activity (HepG2 [7]): 1.6%; Activity (HepG2 [8]): 20.9%; Activity (HepG2 [9]): 51.7%; Activity (HepG2 [10]): 20.7%; IC50 (MV4-11): 7300 nM; Activity (HepG2 [11]): 52.5%
30 | 877 nM | 443 nM | > 10000 nM | CN(C)CCOc1cncc(-c2ccc3[nH]cc(-c4ccc(C(F)(F)F)cc4)c3c2)n1 | 
31 | 236 nM | 96 nM | 4440 nM | CN(C)CCNc1cncc(-c2ccc3[nH]cc(-c4ccc(OC(F)(F)F)cc4)c3c2)n1 | 
32 | 30 nM | 9 nM | 870 nM | COc1ccc(-c2c[nH]c3ccc(-c4cncc(NCCN(C)C)n4)cc23)cc1 | 
33 | 82 nM | 22 nM | 1620 nM | CN(C)CCNc1cncc(-c2ccc3[nH]cc(-c4ccc(F)cc4)c3c2)n1 | 
34 | 11 nM | 7 nM | 1380 nM | NC1CCCN(c2cncc(-c3ccc4[nH]cc(-c5ccccc5F)c4c3)n2)C1 (stereo unspecified) | 
35 | 204 nM | 187 nM | 4350 nM | FC(F)(F)c1ccc(-c2c[nH]c3ccc(-c4cncc(OC5CCNCC5)n4)cc23)cc1 | 
36 | 29 nM | 8 nM | 460 nM | CN(C)CCNc1cncc(-c2ccc3[nH]cc(-c4ccc(N)cc4)c3c2)n1 | 
37 | 137 nM | 23 nM | 1430 nM | CN(C)CCNc1cncc(-c2ccc3[nH]cc(-c4cc(C(=O)O)ccc4F)c3c2)n1 | 
38 | 475 nM | 209 nM | > 10000 nM | CN(C)CCCN(C)c1cncc(-c2ccc3[nH]cc(-c4ccc(C(F)(F)F)cc4)c3c2)n1 | 
39 | 33 nM | 19 nM | 1800 nM | Cc1ccc(-c2c[nH]c3ccc(-c4cncc(NCCN(C)C)n4)cc23)cc1 | 
40 | 29 nM | 21 nM | 830 nM | Cc1cccc(-c2c[nH]c3ccc(-c4cncc(NCCN(C)C)n4)cc23)c1 | 
41 | 417 nM | 160 nM | 5330 nM | CN(C)CCNc1cncc(-c2ccc3[nH]cc(-c4ccc(-c5ccccc5)cc4)c3c2)n1 | 
42 |  |  |  | CN1CCC(CNc2ccc3ncc(-c4cccc(OC(F)(F)F)c4)n3n2)CC1 [SGI-1776] | Activity (HepG2 [4]): 52.3%; Activity (HepG2 [5]): 1.9%; Activity (HepG2 [6]): 13.3%; Activity (HepG2 [7]): 16%; Activity (HepG2 [8]): 8.3%; Activity (HepG2 [9]): 44.2%; Activity (HepG2 [10]): 19.8%; IC50 (MV4-11): 30 nM; Activity (HepG2 [11]): 36.9%
